Assay results from patent publication US20230093099A1, “COMPOUNDS AND METHODS OF TREATING CANCERS” (CULLGEN (SHANGHAI), INC., priority 2019, published 2023).
pIC50: −log10 of the molar value. Read-outs that look alike come from different tables or passages of the source. Blank lines part the entries; values can stand above or below the molecule they belong to.

Experiments:
Type in all cases: cell-based
[1] = test system: RS4;11 cells; test: Cell viability assay (CellTiter-Glo) in RS4;11 cells; settings: cell viability, read-out: IC50
In short: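 RS4;11 cells seeded at 5000 per well, exposed for 3 days to 8- or 12-point 3-fold serial dilutions. Viability read by CellTiter-Glo luminescence; IC50 fitted by nonlinear least-squares regression.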

[2] = test system: HEL cells; test: Cell viability assay (CellTiter-Glo) in HEL cells; settings: erythroleukemia, cell viability, 3 days
Experimental: (§1) MV4;11, RS4;11, Kasumi-1, HEL and other cells were treated with NVP-BSK805, TG101209 or selected degraders for 3 days at indicated concentrations following a 3-fold serial dilution.
(§2) HEL, RS4;11, MV4;11, Kasumi-1 and other cells were cultured at 37° C. with 5% CO2 in RPMI 1640 or DMEM Medium supplemented with 10% fetal bovine serum. Cells were authenticated using the short tandem repeat (STR) assays. Mycoplasma test results were negative.
(§3) Cells were seeded at a density of 5000 cells per well in 96-well assay plates and treated with test compounds following a 8-point or 12-point 3-fold serial dilution. Three days later, cell viability was determined using the CellTiter-Glo assay kit according to the manufacturer's instructions. The dose-response curves were determined and IC50 values were calculated using the GraphPad Prism software following a nonlinear regression (least squares fit) method.

[3] = test system: MOLT-4 cells; test: Cell viability assay (CellTiter-Glo) in MOLT-4 cells; settings: MOLT-4, T-ALL, 3 days
Experimental: as §1, §2, §3

[4] = test system: CCRF-CEM cells; test: Cell viability assay (CellTiter-Glo) in CCRF-CEM cells; settings: T-ALL, 3 days
Experimental: as §1, §2, §3

[5] = test system: Jurkat cells; test: Cell viability assay (CellTiter-Glo) in Jurkat cells; settings: T-ALL, 3 days
Experimental: as §1, §2, §3

[6] = test system: MV4;11 cells; test: Cell viability assay (CellTiter-Glo) in MV4;11 cells; settings: MV4;11, AML, cell viability, 3 days
Experimental: as §1, §2, §3

[7] = test system: Kasumi-1 cells; test: Cell viability assay (CellTiter-Glo) in Kasumi-1 cells; settings: Kasumi-1, AML, cell viability, 3 days
Experimental: as §1, §2, §3

[8] = test system: NOMO-1 cells; test: Cell viability assay (CellTiter-Glo) in NOMO-1 cells; settings: NOMO-1, AML, 3 days
Experimental: as §1, §2, §3

[9] = test system: MOLM-13 cells; test: Cell viability assay (CellTiter-Glo) in MOLM-13 cells; settings: MOLM-13, AML, 3 days
Experimental: as §1, §2, §3

[10] = test system: HL-60 cells; test: Cell viability assay (CellTiter-Glo) in HL-60 cells; settings: HL-60, APL, 3 days
Experimental: as §1, §2, §3

[11] = test system: MM.1S cells; test: Cell viability assay (CellTiter-Glo) in MM.1S cells; settings: Multiple Myeloma, 3 days
Experimental: as §1, §2, §3

[12] = test system: AMO-1 cells; test: Cell viability assay (CellTiter-Glo) in AMO-1 cells; settings: AMO-1, Multiple Myeloma, 3 days
Experimental: as §1, §2, §3

[13] = test system: NCI-H929 cells; test: Cell viability assay (CellTiter-Glo) in NCI-H929 cells; settings: NCI-H929, Multiple Myeloma, 3 days
Experimental: as §1, §2, §3

[14] = test system: MEG-01 cells; test: Cell viability assay (CellTiter-Glo) in MEG-01 cells; settings: MEG-01, CML, 3 days
Experimental: as §1, §2, §3

[15] = test system: WSU-DLCL2 cells; test: Cell viability assay (CellTiter-Glo) in WSU-DLCL2 cells; settings: WSU-DLCL2, DLBCL, 3 days
Experimental: as §1, §2, §3

[16] = test system: Pfeiffer cells; test: Cell viability assay (CellTiter-Glo) in Pfeiffer cells; settings: DLBCL, 3 days
Experimental: as §1, §2, §3

[17] = test system: SU-DHL-1 cells; test: Cell viability assay (CellTiter-Glo) in SU-DHL-1 cells; settings: SU-DHL-1, large cell lymphoma, 3 days
Experimental: as §1, §2, §3

[18] = biological target: T1, JAK1 (Homo sapiens, UniProt P23458); test: Immunoblot of JAK1 protein level in RS4;11 cells; settings: 24 hours, immunoblot, read-out: concentration required to reduce JAK1 by 50% (DC50)
T1 construct: immunoblot of JAK1/3 proteins expressed in RS4;11 cells; endogenous in cells; host or cells: RS4;11 cells
T1 sequence (P23458 whole entry): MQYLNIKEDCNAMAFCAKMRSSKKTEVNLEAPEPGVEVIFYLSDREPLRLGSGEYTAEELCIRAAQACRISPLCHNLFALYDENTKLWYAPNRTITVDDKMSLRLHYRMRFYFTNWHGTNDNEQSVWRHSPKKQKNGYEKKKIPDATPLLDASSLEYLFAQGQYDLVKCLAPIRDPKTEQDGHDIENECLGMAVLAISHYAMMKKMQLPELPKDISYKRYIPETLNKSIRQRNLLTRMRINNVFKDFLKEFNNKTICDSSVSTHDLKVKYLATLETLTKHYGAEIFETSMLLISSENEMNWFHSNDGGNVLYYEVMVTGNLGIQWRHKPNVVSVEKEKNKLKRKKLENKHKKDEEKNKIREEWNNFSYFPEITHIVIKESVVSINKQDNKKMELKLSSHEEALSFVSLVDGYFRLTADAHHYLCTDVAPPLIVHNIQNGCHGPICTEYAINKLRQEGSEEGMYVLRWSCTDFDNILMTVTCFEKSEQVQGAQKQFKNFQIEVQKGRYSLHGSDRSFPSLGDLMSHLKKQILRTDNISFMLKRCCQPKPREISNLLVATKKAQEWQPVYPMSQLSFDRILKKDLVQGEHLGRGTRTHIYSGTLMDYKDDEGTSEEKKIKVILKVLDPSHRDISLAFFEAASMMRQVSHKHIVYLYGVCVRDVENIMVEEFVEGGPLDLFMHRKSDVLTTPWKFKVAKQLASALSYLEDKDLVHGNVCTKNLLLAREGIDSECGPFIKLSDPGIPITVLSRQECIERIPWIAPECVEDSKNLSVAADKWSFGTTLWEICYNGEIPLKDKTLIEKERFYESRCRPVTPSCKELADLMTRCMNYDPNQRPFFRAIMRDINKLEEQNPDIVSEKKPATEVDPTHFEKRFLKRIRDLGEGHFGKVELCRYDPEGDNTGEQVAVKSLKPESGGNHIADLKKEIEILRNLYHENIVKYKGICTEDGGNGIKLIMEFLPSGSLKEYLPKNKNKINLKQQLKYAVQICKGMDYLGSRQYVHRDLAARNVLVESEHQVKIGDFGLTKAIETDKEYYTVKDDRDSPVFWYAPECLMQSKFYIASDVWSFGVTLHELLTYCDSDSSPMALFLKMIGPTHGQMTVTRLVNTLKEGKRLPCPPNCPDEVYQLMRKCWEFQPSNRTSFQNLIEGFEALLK
Experimental: RS4;11 cells were treated with compounds at indicated concentrations for 24 hours. […] The concentrations required to reduce JAK1 by 50% (DC50) were below 5 nM and 35 nM for compound JA-189 and JA213, respectively.
as §2
(§4) Rabbit anti-JAK1 antibody (3344S), anti-JAK2 antibody (3230S), anti-JAK3 antibody (8827S), anti-TYK2 antibody (14193S), anti-FLT3 antibody (3462S), anti-RET antibody (14556S), anti-phospho-STAT3 (Tyr705) antibody (9145S) and anti-phospho-STAT5 (Tyr694) antibody (4322S) were purchased from Cell Signaling Technology. Rabbit anti-GSPT1 antibody (ab126090) was purchased from Abcam. HRP-conjugated anti-α-tubulin antibody was produced in house. Media and other cell culture reagents were purchased from Thermo Fisher. The CellTiter-Glo Luminescent Assay kit was purchased from Promega.
(§5) Cultured cells were washed with cold PBS once and lysed in cold RIPA buffer supplemented with protease inhibitors and phosphatase inhibitors (Beyotime Biotechnology). The solutions were then incubated at 4° C. for 30 minutes with gentle agitation to fully lyse cells. Cell lysates were centrifuged at 13,000 rpm for 10 minutes at 4° C. and pellets were discarded. Total protein concentrations in the lysates were determined by BCA assays (Beyotime Biotechnology). Cell lysates were mixed with Laemmli loading buffer to 1× and heated at 99° C. for 5 min. Proteins were resolved on SDS-PAGE and visualized by chemiluminescence. Images were taken by a ChemiDoc MP Imaging system (Bio-Rad). Protein bands were quantitated using the accompanied software provided by Bio-Rad.

[19] = biological target: T2, GSPT1 (Homo sapiens, UniProt P15170); test: Immunoblot of GSPT1 protein level in RS4;11 cells; settings: 16 hours, immunoblot, read-out: concentration required to reduce GSPT1 by 50% (DC50)
T2 construct: immunoblot of GSPT1 and tubulin expressed in RS4:11 cells; endogenous in cells; host or cells: RS4;11 cells
T2 sequence (P15170 whole entry): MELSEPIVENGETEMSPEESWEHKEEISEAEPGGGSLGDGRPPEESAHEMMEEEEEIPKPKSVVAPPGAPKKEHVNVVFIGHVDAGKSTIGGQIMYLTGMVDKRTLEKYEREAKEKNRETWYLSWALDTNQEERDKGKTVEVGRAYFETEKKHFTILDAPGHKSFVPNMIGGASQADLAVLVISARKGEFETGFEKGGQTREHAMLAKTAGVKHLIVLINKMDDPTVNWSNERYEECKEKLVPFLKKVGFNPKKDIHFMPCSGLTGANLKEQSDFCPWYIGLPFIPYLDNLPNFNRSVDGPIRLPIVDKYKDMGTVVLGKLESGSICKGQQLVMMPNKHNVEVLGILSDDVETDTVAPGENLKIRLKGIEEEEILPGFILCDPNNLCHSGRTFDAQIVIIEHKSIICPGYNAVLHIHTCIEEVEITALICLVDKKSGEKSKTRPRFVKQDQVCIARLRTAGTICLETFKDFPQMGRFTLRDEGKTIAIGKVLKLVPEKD
Experimental: RS4;11 cells were treated with compounds at indicated concentrations for 16 hours. […] The concentrations required to reduce GSPT1 by 50% (DC50) were below 2 nM for compound JA-189 and 10 nM JA213.
as §2, §4, §5

[20] = test system: KM12 cells; test: Cell viability assay (CellTiter-Glo) in KM12 cells; settings: KM12, colorectal carcinoma, 3 days
Experimental: as §1, §2, §3

- pIC50 ([1]; Homo sapiens, 72 h, RS4;11 cells, 3 days, CellTiter-Glo): 5.74
- pIC50 ([3]; Homo sapiens, 72 h): 5.60
- pIC50 ([4]; Homo sapiens, 72 h): 5.40
- pIC50 ([5]; Homo sapiens, 72 h): 6.26
- pIC50 ([6]; Homo sapiens, 72 h): 6.71
- pIC50 ([9]; Homo sapiens, 72 h): 7.32
- pIC50 ([10]; Homo sapiens, 72 h): < 5.00
- pIC50 ([11]; Homo sapiens, MM1.S, 72 h): 5.21
- pIC50 ([13]; Homo sapiens, 72 h): < 5.00
- pIC50 ([17]; Homo sapiens, 72 h): < 5.00
SMILES: Cc1cnc(Nc2ccc(N3CCN(C)CC3)cc2)nc1Nc1cccc(S(=O)(=O)NC(C)(C)C)c1 [TG101209, reference compound]
- pIC50 ([2]; Homo sapiens, 72 h): 5.92
- pIC50 ([7]; Homo sapiens, 72 h): 6.28
- pIC50 ([8]; Homo sapiens, 72 h): 5.89
- pIC50 ([12]; Homo sapiens, AMO1, 72 h): 5.32
- pIC50 ([14]; Homo sapiens, 72 h): 5.15
- pIC50 ([15]; Homo sapiens, WSUDLCL2, 72 h): 5.97
- pIC50 ([16]; Homo sapiens, 72 h): < 5.00

- DC50 [18]: < 35 nM
- DC50 [19]: < 10 nM
SMILES: CS(=O)(=O)c1ccc(-c2cccc3nc(Nc4ccc(N5CCN(CC(=O)NCCCCCCCCNc6ccc7c(c6)C(=O)N(C6CCC(=O)NC6=O)C7=O)CC5)cc4)nn23)cc1 (centres unmarked) [JA213]

- pIC50 ([1]; RS4;11, B-ALL, 3 days (Table 3)): < 5.00
- pIC50 ([1]; RS4;11 cells, 3 days, CellTiter-Glo): < 5.00
- pIC50 [3]: < 5.00
- pIC50 [4]: < 5.00
- pIC50 [5]: 5.60
- pIC50 [6]: 6.41
- pIC50 [9]: 6.70
- pIC50 [10]: < 5.00
- pIC50 [11]: < 5.00
- pIC50 [13]: < 5.00
- pIC50 [17]: < 5.00
SMILES: Fc1cc(-c2cccc3ncc(-c4cnn(C5CCNCC5)c4)nc23)cc(F)c1CN1CCOCC1 [NVP-BSK805, reference compound]
- pIC50 [2]: 5.98
- pIC50 [7]: 6.12
- pIC50 [8]: 5.20
- pIC50 [12]: < 5.00
- pIC50 [14]: 5.05
- pIC50 [15]: < 5.00
- pIC50 [16]: < 5.00
- pIC50 [20]: 5.54
